Test results: ChEMBL document CHEMBL4406887, “Design and synthesis of biaryloxazolidinone derivatives containing amide or acrylamide moiety as novel antibacterial agents against Gram-positive bacteria” (Bioorg Med Chem Lett, 2019)
≈ marks a conversion by molar mass, not a printed value.

Columns and labels:
[1] = Stability in artificial gastric acid at 1 mg/ml assessed as residual rate after 1.5 hrs by HPLC analysis relative to control; format: ADME; settings: read-out: Stability
[2] = Stability in artificial gastric acid at 1 mg/ml assessed as residual rate after 1 hr by HPLC analysis relative to control; format: ADME; settings: read-out: Stability
[3] = Stability in artificial gastric acid at 1 mg/ml assessed as residual rate after 3 hrs by HPLC analysis relative to control; format: ADME; settings: read-out: Stability
[4] = test system: Staphylococcus aureus; test: Antibacterial activity against methicillin-resistant Staphylococcus aureus CLSI-based double dilution method; format: functional
[5] = Stability in artificial gastric acid at 1 mg/ml assessed as residual rate after 4 hrs by HPLC analysis relative to control; format: ADME; settings: read-out: Stability
[6] = test system: Enterococcus faecalis; test: Antibacterial activity against linezolid-resistant Enterococcus faecalis CLSI-based double dilution method; format: functional
[7] = Stability in artificial gastric acid at 1 mg/ml assessed as residual rate after 2 hrs by HPLC analysis relative to control; format: ADME; settings: read-out: Stability
[8] = Stability in artificial gastric acid at 1 mg/ml assessed as residual rate after 2.5 hrs by HPLC analysis relative to control; format: ADME; settings: read-out: Stability
[9] = Stability in artificial gastric acid at 1 mg/ml assessed as residual rate after 3.5 hrs by HPLC analysis relative to control; format: ADME; settings: read-out: Stability
[10] = test system: Staphylococcus aureus; test: Antibacterial activity against methicillin-sensitive Staphylococcus aureus CLSI-based double dilution method; format: functional
[11] = Stability in artificial gastric acid at 1 mg/ml assessed as residual rate measured immediately by HPLC analysis relative to control; format: ADME; settings: read-out: Stability
[12] = test system: Enterococcus faecium; test: Antibacterial activity against vancomycin-resistant Enterococcus faecium CLSI-based double dilution method; format: functional
[13] = Aqueous solubility of compound; format: physicochemical; settings: water
[14] = test system: Staphylococcus aureus; test: Antibacterial activity against Staphylococcus aureus ATCC 29213 CLSI-based double dilution method; format: functional
[15] = Stability in artificial gastric acid at 1 mg/ml assessed as residual rate after 30 mins by HPLC analysis relative to control; format: ADME; settings: read-out: Stability

## CC(=O)NC[C@H]1CN(c2ccc(-c3ccc(/C=N/N4CCN(C)CC4)cc3)c(F)c2)C(=O)O1
[1]
  remaining at 1.5 h, 1 mg/ml: 26.3%
[2]
  remaining at 1 h, 1 mg/ml: 40.7%
[3]
  remaining at 3 h, 1 mg/ml: 0%
[4]
  MIC: 0.0675 µg/mL (≈ 0.149 µM)
[5]
  remaining at 4 h, 1 mg/ml: 0%
[6]
  MIC: 0.0675 µg/mL (≈ 0.149 µM)
[7]
  remaining at 2 h, 1 mg/ml: 16.1%
[8]
  remaining at 2.5 h, 1 mg/ml: 0%
[9]
  remaining at 3.5 h, 1 mg/ml: 0%
[10]
  MIC: 0.0675 µg/mL (≈ 0.149 µM)
[11]
  remaining at 0 h, 1 mg/ml: 100%
[12]
  MIC: 0.0675 µg/mL (≈ 0.149 µM)
[13]
  solubility: 71 µg/mL (≈ 157 µM)
[14]
  MIC: 0.0675 µg/mL (≈ 0.149 µM)
[15]
  remaining at 0.5 h, 1 mg/ml: 97.5%

## CC(=O)NC[C@H]1CN(c2ccc(-c3ccc(/C=C/C(=O)N4CCNCC4)cc3)c(F)c2)C(=O)O1
[1]
  remaining at 1.5 h, 1 mg/ml: 94.9%
[2]
  remaining at 1 h, 1 mg/ml: 95.2%
[3]
  remaining at 3 h, 1 mg/ml: 90.9%
[4]
  MIC: 0.5 µg/mL (≈ 1.07 µM)
[5]
  remaining at 4 h, 1 mg/ml: 88.7%
[6]
  MIC: 0.25 µg/mL (≈ 0.536 µM)
[7]
  remaining at 2 h, 1 mg/ml: 91.7%
[8]
  remaining at 2.5 h, 1 mg/ml: 91.5%
[9]
  remaining at 3.5 h, 1 mg/ml: 89.7%
[10]
  MIC: 0.5 µg/mL (≈ 1.07 µM)
[11]
  remaining at 0 h, 1 mg/ml: 100%
[12]
  MIC: 0.5 µg/mL (≈ 1.07 µM)
[13]
  solubility: 115 µg/mL (≈ 247 µM)
[14]
  MIC: 0.5 µg/mL (≈ 1.07 µM)
[15]
  remaining at 0.5 h, 1 mg/ml: 94.9%

## CC(=O)NC[C@H]1CN(c2ccc(-c3ccc(C(=O)N4CCSCC4)cc3)c(F)c2)C(=O)O1
[4]
  MIC: 2 µg/mL (≈ 4.37 µM)
[6]
  MIC: 4 µg/mL (≈ 8.74 µM)
[10]
  MIC: 2 µg/mL (≈ 4.37 µM)
[12]
  MIC: 2 µg/mL (≈ 4.37 µM)
[14]
  MIC: 1 µg/mL (≈ 2.19 µM)

## CC(=O)NC[C@H]1CN(c2ccc(-c3ccc(/C=C/C(=O)N4CCSCC4)cc3)c(F)c2)C(=O)O1
[4]
  MIC: 2 µg/mL (≈ 4.14 µM)
[6]
  MIC: 2 µg/mL (≈ 4.14 µM)
[10]
  MIC: 1 µg/mL (≈ 2.07 µM)
[12]
  MIC: 2 µg/mL (≈ 4.14 µM)
[14]
  MIC: 1 µg/mL (≈ 2.07 µM)

## CC(=O)NC[C@H]1CN(c2ccc(-c3ccc(/C=C/C(=O)NC4CCCC4)cc3)c(F)c2)C(=O)O1
[4]
  MIC: 1 µg/mL (≈ 2.15 µM)
[6]
  MIC: 1 µg/mL (≈ 2.15 µM)
[10]
  MIC: 1 µg/mL (≈ 2.15 µM)
[12]
  MIC: 1 µg/mL (≈ 2.15 µM)
[14]
  MIC: 1 µg/mL (≈ 2.15 µM)

## CC(=O)NC[C@H]1CN(c2ccc(-c3ccc(/C=C/C(=O)N4CCCCC4)cc3)c(F)c2)C(=O)O1
[4]
  MIC: 1 µg/mL (≈ 2.15 µM)
[6]
  MIC: 1 µg/mL (≈ 2.15 µM)
[10]
  MIC: 1 µg/mL (≈ 2.15 µM)
[12]
  MIC: 1 µg/mL (≈ 2.15 µM)
[14]
  MIC: 1 µg/mL (≈ 2.15 µM)

## CC(=O)NC[C@H]1CN(c2ccc(-c3ccc(C(=O)N4CCNCC4)cc3)c(F)c2)C(=O)O1
[4]
  MIC: 1 µg/mL (≈ 2.27 µM)
[6]
  MIC: 1 µg/mL (≈ 2.27 µM)
[10]
  MIC: 1 µg/mL (≈ 2.27 µM)
[12]
  MIC: 1 µg/mL (≈ 2.27 µM)
[14]
  MIC: 1 µg/mL (≈ 2.27 µM)

## CC(=O)NC[C@H]1CN(c2ccc(-c3ccc(C(=O)N4CCCCC4)cc3)c(F)c2)C(=O)O1
[4]
  MIC: 1 µg/mL (≈ 2.28 µM)
[6]
  MIC: 1 µg/mL (≈ 2.28 µM)
[10]
  MIC: 1 µg/mL (≈ 2.28 µM)
[12]
  MIC: 1 µg/mL (≈ 2.28 µM)
[14]
  MIC: 1 µg/mL (≈ 2.28 µM)

## CC(=O)NC[C@H]1CN(c2ccc(-c3ccc(/C=C/C(=O)N4CCCC4)cc3)c(F)c2)C(=O)O1
[4]
  MIC: 1 µg/mL (≈ 2.21 µM)
[6]
  MIC: 1 µg/mL (≈ 2.21 µM)
[10]
  MIC: 1 µg/mL (≈ 2.21 µM)
[12]
  MIC: 1 µg/mL (≈ 2.21 µM)
[14]
  MIC: 1 µg/mL (≈ 2.21 µM)

## CC(=O)NC[C@H]1CN(c2ccc(-c3ccc(/C=C/C(=O)N4CCC(C)CC4)cc3)c(F)c2)C(=O)O1
[4]
  MIC: 1 µg/mL (≈ 2.09 µM)
[6]
  MIC: 1 µg/mL (≈ 2.09 µM)
[10]
  MIC: 1 µg/mL (≈ 2.09 µM)
[12]
  MIC: 1 µg/mL (≈ 2.09 µM)
[14]
  MIC: 1 µg/mL (≈ 2.09 µM)

## CC(=O)NC[C@H]1CN(c2ccc(-c3ccc(C(=O)NC4CC4)cc3)c(F)c2)C(=O)O1
[4]
  MIC: 1 µg/mL (≈ 2.43 µM)
[6]
  MIC: 1 µg/mL (≈ 2.43 µM)
[10]
  MIC: 1 µg/mL (≈ 2.43 µM)
[12]
  MIC: 1 µg/mL (≈ 2.43 µM)
[14]
  MIC: 1 µg/mL (≈ 2.43 µM)

## CC(=O)NC[C@H]1CN(c2ccc(-c3ccc(C(=O)N4CCOCC4)cc3)c(F)c2)C(=O)O1
[4]
  MIC: 2 µg/mL (≈ 4.53 µM)
[6]
  MIC: 2 µg/mL (≈ 4.53 µM)
[10]
  MIC: 2 µg/mL (≈ 4.53 µM)
[12]
  MIC: 2 µg/mL (≈ 4.53 µM)
[14]
  MIC: 2 µg/mL (≈ 4.53 µM)

## CC(=O)NC[C@H]1CN(c2ccc(-c3ccc(/C=C/C(=O)N4CCOCC4)cc3)c(F)c2)C(=O)O1
[4]
  MIC: 2 µg/mL (≈ 4.28 µM)
[6]
  MIC: 4 µg/mL (≈ 8.56 µM)
[10]
  MIC: 2 µg/mL (≈ 4.28 µM)
[12]
  MIC: 2 µg/mL (≈ 4.28 µM)
[14]
  MIC: 2 µg/mL (≈ 4.28 µM)

## CC(=O)NC[C@H]1CN(c2ccc(-c3ccc(C(=O)N4CCCC4)cc3)c(F)c2)C(=O)O1
[4]
  MIC: 1 µg/mL (≈ 2.35 µM)
[6]
  MIC: 2 µg/mL (≈ 4.7 µM)
[10]
  MIC: 1 µg/mL (≈ 2.35 µM)
[12]
  MIC: 2 µg/mL (≈ 4.7 µM)
[14]
  MIC: 1 µg/mL (≈ 2.35 µM)

## CC(=O)NC[C@H]1CN(c2ccc(-c3ccc(/C=C/C(=O)NC4CC4)cc3)c(F)c2)C(=O)O1
[4]
  MIC: 1 µg/mL (≈ 2.29 µM)
[6]
  MIC: 1 µg/mL (≈ 2.29 µM)
[10]
  MIC: 1 µg/mL (≈ 2.29 µM)
[12]
  MIC: 1 µg/mL (≈ 2.29 µM)
[14]
  MIC: 1 µg/mL (≈ 2.29 µM)

## CC(=O)NC[C@H]1CN(c2ccc(-c3ccc(C(=O)NC4CCCC4)cc3)c(F)c2)C(=O)O1
[4]
  MIC: 1 µg/mL (≈ 2.28 µM)
[6]
  MIC: 1 µg/mL (≈ 2.28 µM)
[10]
  MIC: 1 µg/mL (≈ 2.28 µM)
[12]
  MIC: 1 µg/mL (≈ 2.28 µM)
[14]
  MIC: 1 µg/mL (≈ 2.28 µM)

## CC(=O)NC[C@H]1CN(c2ccc(N3CCOCC3)c(F)c2)C(=O)O1 [LINEZOLID]
[4]
  MIC: 1 µg/mL (≈ 2.96 µM)
[6]
  MIC: > 16 µg/mL
[10]
  MIC: 1 µg/mL (≈ 2.96 µM)
[12]
  MIC: 2 µg/mL (≈ 5.93 µM)
[14]
  MIC: 1 µg/mL (≈ 2.96 µM)

## CC(=O)NC[C@H]1CN(c2ccc(-c3ccc(CNCc4cnn[nH]4)cc3)c(F)c2)C(=O)O1 [RADEZOLID]
[4]
  MIC: 0.5 µg/mL (≈ 1.14 µM)
[6]
  MIC: 0.5 µg/mL (≈ 1.14 µM)
[10]
  MIC: 0.5 µg/mL (≈ 1.14 µM)
[12]
  MIC: 0.5 µg/mL (≈ 1.14 µM)
[14]
  MIC: 0.5 µg/mL (≈ 1.14 µM)
